{"source": "patent US6025365A", "about": "“Chelerythrine and radiation combined tumor therapy” (Arch Development Corp., priority 1997, dated 2000)", "key": {"SQ-20B cells": {"test_system": "SQ-20B cells", "experiment": "Viability by propidium iodide exclusion and FACS", "details": "2.5 μM chelerythrine and 8 Gy", "experimental": "Cells, 2.5-3.5×10^5, were cultured in 24-well tissue culture plates for all experiments following standard procedures as previously described (Chmura et al., 1996a; 1996b). Cells were treated with varying concentrations of chelerythrine, incubated for 30 minutes at 37° C. and then irradiated. Radiation for all samples was delivered using a ^60 Co-irradiator (Gammacell 220, Atomic Energy of Canada) at a dose rate of 2.0 Gy/sec. After the indicated time points, cells were harvested, washed once in PBS, and resuspended in PBS containing […] propidium iodide. […] Cells undergoing apoptosis also shrink in size. Cells were analyzed via flow cytometry (FACS) following standard procedures as described in (Chmura et al., 1996a; 1996b) on a FACScan (Becton-Dickson) using Lysis II software."}, "SQ-20B xenografts [1]": {"test_system": "SQ-20B xenografts", "experiment": "Growth of SQ-20B tumor xenografts in nude mice", "assay_type": "in vivo, nude mice (human tumor xenograft)", "experimental": "FIG. 6. The SQ-20B xenograft system was used to assess the therapeutic efficacy of the combined treatment modality over 30 days. Forty animals (n=40) were treated in each group and the % mean tumor growth was determined for all animals. Calipers were used to measure tumor growth.\nSQ-20B (1-5×10^6) tumor cells were injected into the right hind limbs of nude mice (Fredrick Cancer Research Institute). Xenografts were grown for 2-3 weeks to a mean tumor volume of […]. At day 0, initial tumor volume was determined by direct measurement with calipers. During treatment tumor volumes were measured with calipers twice weekly and represented as percent of original tumor volume. Tumor volumes were calculated by the formula (a×b×c/2) which was derived from that for an ellipsoid (d3/6). Tumor cure was defined as regression to a volume of <10% of original size since, at this volume, it is impossible to differentiate residual tumor from scar tissue. Xenografts were injected with 2 mg/kg chelerythrine chloride on days 0, 3, 7 and 10. Irradiated mice were immobilized in lucite chambers and the entire body was shielded with lead except for the tumor bearing hind limb 14. Tumors were irradiated (5 Gy/day, 4 days/week) to a total dose of 50 Gy using a Maxitron generator (1.88 Gy/min.). Tumors were treated with radiation alone, chelerythrine alone, and buffer or chelerythrine combined with radiation. Data were calculated as the percent of original (day 0) tumor volume and graphed as fractional tumor volume±SEM.\nRadiation was delivered at 5 Gy/day, 4 days per week, for a total of 50 Gy."}, "[2]": {"experiment": "Acute lethality / tolerability in mice"}, "SQ-20B xenografts [3]": {"test_system": "SQ-20B xenografts", "experiment": "Histology of SQ-20B xenografts", "assay_type": "in vivo, nude mice (human tumor xenograft)", "details": "combined x-ray and chelerythrine vs IR", "experimental": "Tumors were injected once or twice (day 0 and day 4) with chelerythrine, chelerythrine and 20 Gy (5 Gy/Day) or 20 Gy alone and excised on day 7, fixed in 10% neutral buffered formalin. Tumors were then trimmed and processed in a Tissue Tek II Tissue Processor. Tissues were embedded in paraffin, sectioned and stained with hematoxylin and eosin or with […] of DAPI (4',6-iamidino-2-phenylindole, Sigma D9542, 1 μg/ml in PBT (PBS+1% Triton X-100)), followed by examination for apoptosis and necrosis by light microscopy.\nIn contrast, 1/16 of the radiation+buffer and 13/43 of the chelerythrine only treated animals regressed to less than 10% of the initial tumor volume. […] Representative sections of non-necrotic areas of tumors were stained with DAPI to detect nuclear changes of apoptosis. Tumor sections were taken at day 7 following treatment with 2 injections of chelerythrine alone, 20 Gy alone, 1 injection of chelerythrine and 20 Gy, or 2 treatments with chelerythrine and 20 Gy. Nuclei from non-necrotic areas of tumors treated with radiation alone appeared rounded and contained a smooth heterachromatin appearance. Few apoptotic nuclei as defined by chromatin margination and nuclear shrinkage could be detected in these areas."}, "WEHI-231 cells": {"test_system": "WEHI-231 cells", "experiment": "Ceramide production by DAG kinase assay", "assay_type": "cell-based, murine", "details": "Mus musculus, WEHI231, 0.5 h; 10 μM chelerythrine, approximately 30 minutes; read-out: ceramide generation increase", "experimental": "FIG. 7A. Inhibition of PKC causes an increase in ceramide production through the activation of a neutral sphingomyelinase and decreases in sphingomyelin levels. Ceramide production was quantitated using the DAG kinase assay for WEHI-231 JM cells and total lipid extraction was used to assay sphingomyelin mass. Following addition of 10 μM chelerythrine, cells were lysed at the appropriate time points as described herein. Each data point represents the average percentage change in ceramide or sphingomyelin generation from baseline derived from at least 8 independent studies for all time points with the exception of those marked with * (n=4). Standard deviations depicted by error bars.\nFIG. 7B. […] Ceramide production and sphingomyelin mass was quantitated identical to that for chelerythrine. Cells were lysed 2 hours following the addition of 250 nM calphostin C. […]\nQuantitation of ceramide by diacylglycerol kinase was similar to that described by Dressler and Kolesnick (1990). […] Data was calculated as pmoles of ceramide/10^6 cells by scintillation counting. […]\nIn order to test whether PKC inhibition alters ceramide production, the DAG kinase assay was used to quantify intracellular ceramide following chelerythrine and calphostin C treatment (Dressler and Kolesnick, 1990; Preiss et al., 1986). […]"}, "L-1210 tumor cells": {"test_system": "L-1210 tumor cells", "details": "l1210 cells; cited from earlier work"}}, "data": [{"smiles": "COc1ccc2c(c[n+](C)c3c4cc5c(cc4ccc23)OCO5)c1OC", "note": "[chelerythrine, 1,2-dimethoxy-12-methyl[1,3]benzodioxolo[5,6-c]phenanthridinium]", "values": [{"measurement": "decrease in cell survival", "setting": "SQ-20B cells", "result": 85, "unit": "%"}, {"measurement": "animals with regression to less than 10% of original tumor volume, combined treatment", "setting": "SQ-20B xenografts [1]; 2 mg/kg chelerythrine x4 plus 50 Gy, day 31", "result": "20/41"}, {"measurement": "animals with regression to less than 10% of initial tumor volume, chelerythrine only", "setting": "SQ-20B xenografts [1]; 2 mg/kg x4, day 31", "result": "13/43"}, {"measurement": "tumor regrowth, volume at day 30", "setting": "SQ-20B xenografts [1]; chelerythrine alone, 2 mg/kg days 0, 3, 7, 10", "result": "174 % of the original volume"}, {"measurement": "health of animals", "setting": "[2]; all treatment groups, throughout the xenograft study", "result": "appeared healthy throughout the study"}, {"measurement": "LD50", "setting": "[2]; mouse, in vivo, ip", "result": 25, "unit": "mg/kg"}, {"measurement": "inflammatory response and necrosis in epidermis and muscle", "setting": "SQ-20B xenografts [3]", "result": "did not increase this response"}, {"measurement": "activation at 10 µM", "setting": "WEHI-231 cells", "result": 100, "unit": "%"}, {"measurement": "IC50", "setting": "L-1210 tumor cells", "result": 53, "unit": "nM"}]}]}
